Measurements taken from US7097977B1, “Target of anticancer agent” (priority 2000, dated 2006).

Test system: rad51c, rad51d, xrcc2 and xrcc3 mutant DT40 cells
Assay: colony survival assay on methyl cellulose containing cisplatin
Format: cell-based, avian
Conditions: continuous cisplatin in methyl cellulose plate; each mutant vs normal cells
Protocol: Further, the cells were plated on a plate of methyl cellulose containing cisplatin (manufactured by NIPPON KAYAKU CO., LTD.), and cultured in an atmosphere of 5% CO2 and 20% O2, at humidity of 100%, and 39° C. Thereafter, the colony survival assay was carried out, thereby evaluating sensitivity of the cells to cisplatin.
However, as shown in the panel (B) of FIG. 3, each mutant was about 8-fold more sensitive than normal cells to killing by cisplatin (cis-diamminedichloroplatinum-II), a DNA cross-linking agent that has been widely used in chemotherapy. The complementation of these mutants with human cDNAs corresponding to mutant genes in these mutants restored their cisplatin sensitivity to nearly normal levels.

N.N.[Cl][Pt][Cl] [cisplatin, cis-diamminedichloroplatinum-II]
sensitivity of each mutant to killing relative to normal cells: about 8 fold
